Our source for the mass density values is the NIST ThermoML archive (doi:10.1016/j.jct.2008.10.013).

The mass density is the mass of a sample divided by its volume.

± gives the expanded uncertainty stated by the source.

For this series the following is noted: 298.15 K; 101.33 kPa; Liquid; Vibrating tube method.
In the case of `C=C(C)[C@H]1CC=C(C)CC1` [(R)-1-methyl-4-(1-methylethenyl)cyclohexene], the mass density was determined as 837.31 ± 0.31 kg/m3. The same measure for `CCO` [ethanol]: 785.24 ± 0.19 kg/m3; for `CO` [methanol]: 786.62 ± 0.17 kg/m3.
